Several values for one entry are separate records, joined by “and”; a condition that tells them apart may be missing. Equal values may be shown once. Read-outs that look alike come from different tables or passages of the source. Blank lines part the entries; values can stand above or below the compound they belong to.
Tests used:
[1] = target: T1, human recombinant histamine H1 receptor (Homo sapiens, UniProt P35367); assay: Histamine H1 radioligand binding ([3H]Pyrilamine)
T1 construct: expressed in transfected cells; host or cells: CHO cells
Description: To evaluate in radioligand binding assays the activity of compounds of the invention, human recombinant histamine H1 receptor expressed in Chinese hamster ovary (CHO) cells (De Backer M D et al. Biochem. Biophys. Res Comm. 197(3):1601, 1993) in a modified Tris-HCl buffer (50 mM Tris-HCl, pH 7.4, 2 mM MgCl2, 100 mM NaCl, 250 mM Sucrose) were used. […] Non-specific binding was estimated in the presence of 1 μM pyrilamine. Receptor proteins were filtered and washed, the filters were then counted to determine [^3H]pyrilamine specifically bound. […] Biochemical assay results are presented as the percent inhibition of specific binding in Table 5.
To evaluate in radioligand binding assays the activity of compounds of the invention, human recombinant histamine H1 receptor expressed in Chinese hamster ovary (CHO) cells (De Backer, M. D. et al., Biochem. Biophys. Res. Comm. 197(3):1601, 1993) in a modified Tris-HCl buffer (50 mM Tris-HCl, pH 7.4, 2 mM MgCl2, 100 mM NaCl, 250 mM Sucrose) was used. […] Non-specific binding was estimated in the presence of 1 μM pyrilamine. Receptor proteins were filtered and washed, the filters were then counted to determine [^3H]Pyrilamine specifically bound. Compounds were screened at 1 μM, using 1% DMSO as vehicle. Biochemical assay results are presented as the percent inhibition of specific binding in Table 6.

[2] = target: T2, human recombinant histamine H2 receptor (Homo sapiens, UniProt P25021); assay: Histamine H2 radioligand binding ([125I]Aminopotentidine)
T2 construct: expressed in transfected cells; host or cells: CHO-K1 cells
Description: Non-specific binding was estimated in the presence of 3 μM Tiotidine. […] Biochemical assay results are presented as the percent inhibition of specific binding in Table 5.
Non-specific binding was estimated in the presence of 3 μM Tiotidine. […] Compounds were screened at 1 μM, using 1% DMSO as vehicle. Biochemical assay results are presented as the percent inhibition of specific binding in Table 6.

[3] = system: synaptosomes of cortex of rat brain; assay: Glutamate-induced 45Ca2+ uptake into synaptosomes; type: biochemical, Wistar rats; conditions: for % Ca of control (control-100%), glutamate-induced 45Ca2+ uptake into synaptosomes: rat cortex synaptosomes
Description: Synaptosomes were obtained from cerebral cortex of newborn (9-10 days) Wistar rats using standard Hajos method. The brain was homogenized with 10 volumes of cooled 0.32 M sucrose at 900 rpm. The homogenate was centrifuged at 1500 g for 10 min. and the resulted supernatant was centrifuged at 10000 g for 20 min. The radioactive label was accumulated by suspension of the synaptosomal P2-fraction in the incubation buffer A having the following composition: 132 mM NaCl, 5 mM KCl, 5 mM HEPES, 10 mM glucose, pH 7.4 (protein concentration of approximately 1.5-2 mg/ml). The mixture was further incubated for 5 min with 200 μM glutamate at 37° C. and then ^45Ca^2+ uptake was stopped by filtration through GF/B filters (Whatman, England) followed by three washes with cold buffer B (145 mM KCl, 10 mM Tris, 5.4 mM Trilon B, pH 7.4). The radioactivity probes were analyzed by fluid scintillation beta-analyzer (TriCarb, Perkin Elmer). All tests were performed in three parallel trials in 2-3 independent experiments. The amount of ^45Ca^2+ uptake was estimated by calculating the difference of radioactive label during the stimulation with glutamate and without the stimulation with agonist.
Specific ^45Ca^2+ uptake was estimated using the following equation: K(43/21)=[(Ca4−Ca3)/(Ca2−Ca1)]100%, where
Ca1—^45Ca^2+ uptake for the Control (without glutamate and the compound tested),
[…] glutamate-induced ^45Ca^2+ uptake (glutamate only),
Ca3—^45Ca^2+ uptake in the presence of the compound tested (without glutamate),
Ca4—^45Ca^2+ uptake in the presence of glutamate and the testing compound.
Statistical analysis of the results was performed using Student's t-test.

mice = assay: recognition test of new location of a known object (spatial memory); type: in vivo; conditions: for time exploring the object in a new location, % of the total time / time exploring the object in the known position, % of the total time / effect of the dose on exploration time / memory (in words) / overall effect on memory (in words): mice; for overall effect on memory (in words): doses 0.05-1 mg/kg
[4] = 1 μM compound, […] [3H]Pyrilamine, read-out: Histamine Binding H1, percent inhibition of specific binding
[5] = 1 μM compound, 0.1 nM [125I]Aminopotentidine, read-out: Histamine Binding H2, percent inhibition of specific binding

T2 sequence (P25021 whole entry): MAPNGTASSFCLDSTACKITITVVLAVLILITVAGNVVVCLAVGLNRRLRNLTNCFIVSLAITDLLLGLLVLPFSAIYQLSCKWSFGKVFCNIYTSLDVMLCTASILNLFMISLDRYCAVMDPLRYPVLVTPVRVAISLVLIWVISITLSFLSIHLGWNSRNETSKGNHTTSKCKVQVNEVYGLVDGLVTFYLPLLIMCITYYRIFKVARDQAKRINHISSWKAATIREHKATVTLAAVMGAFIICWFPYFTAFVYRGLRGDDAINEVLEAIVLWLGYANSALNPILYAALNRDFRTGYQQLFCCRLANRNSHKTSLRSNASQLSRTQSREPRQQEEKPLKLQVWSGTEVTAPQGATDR
T1 sequence (P35367 whole entry): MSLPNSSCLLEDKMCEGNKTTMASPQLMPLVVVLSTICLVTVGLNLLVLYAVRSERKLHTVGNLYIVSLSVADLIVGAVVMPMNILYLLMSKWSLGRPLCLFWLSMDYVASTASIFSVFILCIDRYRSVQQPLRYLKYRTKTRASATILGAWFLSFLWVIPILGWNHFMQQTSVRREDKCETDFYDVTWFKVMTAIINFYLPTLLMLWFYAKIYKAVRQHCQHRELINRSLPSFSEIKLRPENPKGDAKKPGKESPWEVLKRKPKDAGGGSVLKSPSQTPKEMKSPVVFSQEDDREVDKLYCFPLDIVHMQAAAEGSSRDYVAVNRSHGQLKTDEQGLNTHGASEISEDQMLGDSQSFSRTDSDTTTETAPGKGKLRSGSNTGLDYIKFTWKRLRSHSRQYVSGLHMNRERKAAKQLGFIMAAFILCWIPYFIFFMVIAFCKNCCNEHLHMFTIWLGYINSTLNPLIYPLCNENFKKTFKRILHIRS

Histamine Binding H1, percent inhibition of specific binding ([1]; 1 μM compound, […] [3H]Pyrilamine): 3% | Histamine Binding H2, percent inhibition of specific binding ([2]; 1 μM compound, 0.1 nM [125I]Aminopotentidine): 22%
SMILES: CN1CCc2c(c3cc(Cl)ccc3n2CCc2n[nH]c(=S)n2C)C1(C)C [Compound 220]

inhibition at 0.01 µM ([1]; 10 nM (0.01 μM) compound, […] [3H]Pyrilamine, read-out: Histamine Binding H1, percent inhibition of specific binding): 85% | inhibition at 0.1 µM ([1]; 0.1 μM compound, […] [3H]Pyrilamine, read-out: Histamine Binding H1, percent inhibition of specific binding): 101% | inhibition at 1 µM [1, 4]: 103% | inhibition at 0.1 µM ([2]; 0.1 μM compound, 0.1 nM [125I]Aminopotentidine, read-out: Histamine Binding H2, percent inhibition of specific binding): 89% | inhibition at 1 µM [2, 5]: 98%
SMILES: FC(F)(F)c1ccc2c(c1)c1c(n2CCc2noc(-c3ccccc3)n2)CCN(C2CC2)C1 [Compound 222]

inhibition at 1 µM [1, 4]: 100% | inhibition at 1 µM [2, 5]: 94%
SMILES: CN1Cc2c(n(CCc3noc(-c4ccccc4)n3)c3ccc(Cl)cc23)CC12CC2 [Compound 223]

inhibition at 1 µM [1, 4]: 94% | inhibition at 1 µM [2, 5]: 87%
SMILES: CN1Cc2c(n(CCc3noc(-c4ccc(Cl)cc4)n3)c3ccc(Cl)cc23)CC12CC2 [Compound 242]

Continued, compound first:

SMILES: Cc1ccc2c(c1)c1c(n2CCC(=O)N2CCC(NC(=O)OC(C)(C)C)CC2)CCN(C)C1 [Compound 226, tert-butyl 1-(3-(1,2,3,4-tetrahydro-2,8-dimethylpyrido[4,3-b]indol-5-yl)propanoyl)piperidin-4-ylcarbamate]
inhibition at 1 µM [1, 4]: 87% | inhibition at 1 µM [2, 5]: 96%

SMILES: Cc1ccc2c(c1)c1c(n2CCc2ccc(C(=O)O)nc2)CCN(C)C1=O [Compound 241]
inhibition at 1 µM ([1]; read-out: Histamine Binding H1, percent inhibition of specific binding): 19% | inhibition at 1 µM ([2]; read-out: Histamine Binding H2, percent inhibition of specific binding): 11%

SMILES: CN1CCc2c(c3ccccc3n2CCc2nc(-c3ccccc3)cs2)C1 [Compound C1-1]
concentration at which glutamate-induced 45Ca2+ uptake into synaptosomes was increased [3]: 50 to 100 µM | inhibition of glutamate-induced 45Ca2+ uptake into synaptosomes ([3]; 0.1-0.5 μM): ~13% | glutamate-induced 45Ca2+ uptake into synaptosomes of rat cortex, % Ca of control (control-100%) ([3]; C 50 μM): 126.9% | % Ca of control (control-100%), glutamate-induced 45Ca2+ uptake into synaptosomes ([3]; compound 0.1 μM): 85.5 ± 5.8% | % Ca of control (control-100%), glutamate-induced 45Ca2+ uptake into synaptosomes ([3]; compound 0.5 μM): 86.9 ± 4.2% | % Ca of control (control-100%), glutamate-induced 45Ca2+ uptake into synaptosomes ([3]; compound 1 μM): 100.3 ± 6.5% | % Ca of control (control-100%), glutamate-induced 45Ca2+ uptake into synaptosomes ([3]; compound 5 μM): 98.8 ± 3.2% | % Ca of control (control-100%), glutamate-induced 45Ca2+ uptake into synaptosomes ([3]; compound 10 μM): 91 ± 11.9% | % Ca of control (control-100%), glutamate-induced 45Ca2+ uptake into synaptosomes ([3]; compound 50 μM): 126.9 ± 4.5% | % Ca of control (control-100%), glutamate-induced 45Ca2+ uptake into synaptosomes ([3]; compound 100 μM): 111.9 ± 11.31% | Influence on memory in the test recognition new localization of known object (mice; Dose of Compound 0.05 mg/kg): + | Influence on memory in the test recognition new localization of known object (mice; Dose of Compound 0.1 mg/kg): + | Influence on memory in the test recognition new localization of known object (mice; Dose of Compound 0.5 mg/kg): − | Influence on memory in the test recognition new localization of known object (mice; Dose of Compound 1.0 mg/kg): + | activity on memory compared with dimebon (in words) (mice; comparison of effective doses): approximately two times higher | time exploring the object in a new location, % of the total time (mice; dose 0.05 mg/kg): 61.8±8.4% | time exploring the object in the known position, % of the total time (mice; dose 0.05 mg/kg): 38.2±8.4% | time exploring the object in a new location, % of the total time (mice; dose 0.1 mg/kg): 56.0±6.9% | time exploring the object in the known position, % of the total time (mice; dose 0.1 mg/kg): 42.7±6.9% | effect of the dose on exploration time / memory (in words) (mice; dose 0.5 mg/kg): disappearance of the stimulating effect on memory | time exploring the object in a new location, % of the total time (mice; dose 1 mg/kg): 61.5±8.9% | time exploring the object in the known position, % of the total time (mice; dose 1 mg/kg): 37.8±8.9% | overall effect on memory (in words) (mice): stimulating effect on memory

SMILES: COc1ccc2c(c1)c1c(n2CCc2noc(-c3ccccc3)n2)CCN(C)C1 [Compound C4-5]
concentration at which glutamate-induced 45Ca2+ uptake into synaptosomes was inhibited [3]: 1 to 25 µM | inhibition of glutamate-induced 45Ca2+ uptake into synaptosomes ([3]; 10 μM (maximal inhibition)): 40% | glutamate-induced 45Ca2+ uptake into synaptosomes of rat cortex, % Ca of control (control-100%) ([3]; C 0.1 μM): 136.4% and 136.4 ± 11.8% | glutamate-induced 45Ca2+ uptake into synaptosomes of rat cortex, % Ca of control (control-100%) ([3]; C 0.5 μM): 124.6 ± 13.7% | glutamate-induced 45Ca2+ uptake into synaptosomes of rat cortex, % Ca of control (control-100%) ([3]; C 1.0 μM): 99.8 ± 0.1% | glutamate-induced 45Ca2+ uptake into synaptosomes of rat cortex, % Ca of control (control-100%) ([3]; C 5.0 μM): 84.2 ± 0.7% | glutamate-induced 45Ca2+ uptake into synaptosomes of rat cortex, % Ca of control (control-100%) ([3]; C 10 μM): 59.9 ± 0.2% | glutamate-induced 45Ca2+ uptake into synaptosomes of rat cortex, % Ca of control (control-100%) ([3]; C 25 μM): 98.6 ± 9.4% | glutamate-induced 45Ca2+ uptake into synaptosomes of rat cortex, % Ca of control (control-100%) ([3]; C 50 μM): 111.7 ± 11.2% | glutamate-induced 45Ca2+ uptake into synaptosomes of rat cortex, % Ca of control (control-100%) ([3]; C 100 μM): 148.4% and 148.4 ± 7.3% | Influence on memory in the test recognition new localization of known object (mice; Dose of Compound 0.05 mg/kg): − | Influence on memory in the test recognition new localization of known object (mice; Dose of Compound 0.1 mg/kg): − | Influence on memory in the test recognition new localization of known object (mice; Dose of Compound 0.5 mg/kg): + | Influence on memory in the test recognition new localization of known object (mice; Dose of Compound 1.0 mg/kg): + | activity on memory: times weaker than dimebon (mice; comparison of effective doses): approximately 10 times | effect of the dose on exploration time / memory (in words) (mice; dose 0.05 mg/kg): not effective | effect of the dose on exploration time / memory (in words) (mice; dose 0.1 mg/kg): not effective | time exploring the object in a new location, % of the total time (mice; dose 0.5 mg/kg): 56.2±7.6% | time exploring the object in the known position, % of the total time (mice; dose 0.5 mg/kg): 43.8±7.6% | time exploring the object in a new location, % of the total time (mice; dose 1 mg/kg): 60.6±8.4% | time exploring the object in the known position, % of the total time (mice; dose 1 mg/kg): 39.4±8.4% | overall effect on memory (in words) (mice): stimulated memory
